The text below walks through data of ChEMBL document CHEMBL1201862, “PubChem BioAssay data set” (2004).

Active and inactive are the calls of the source. A value given as a limit tells only on which side of the number the result lay.

For test [1], the target named is T1, Insulin-degrading enzyme (Homo sapiens, UniProt P14735).
T1 sequence (P14735 whole entry): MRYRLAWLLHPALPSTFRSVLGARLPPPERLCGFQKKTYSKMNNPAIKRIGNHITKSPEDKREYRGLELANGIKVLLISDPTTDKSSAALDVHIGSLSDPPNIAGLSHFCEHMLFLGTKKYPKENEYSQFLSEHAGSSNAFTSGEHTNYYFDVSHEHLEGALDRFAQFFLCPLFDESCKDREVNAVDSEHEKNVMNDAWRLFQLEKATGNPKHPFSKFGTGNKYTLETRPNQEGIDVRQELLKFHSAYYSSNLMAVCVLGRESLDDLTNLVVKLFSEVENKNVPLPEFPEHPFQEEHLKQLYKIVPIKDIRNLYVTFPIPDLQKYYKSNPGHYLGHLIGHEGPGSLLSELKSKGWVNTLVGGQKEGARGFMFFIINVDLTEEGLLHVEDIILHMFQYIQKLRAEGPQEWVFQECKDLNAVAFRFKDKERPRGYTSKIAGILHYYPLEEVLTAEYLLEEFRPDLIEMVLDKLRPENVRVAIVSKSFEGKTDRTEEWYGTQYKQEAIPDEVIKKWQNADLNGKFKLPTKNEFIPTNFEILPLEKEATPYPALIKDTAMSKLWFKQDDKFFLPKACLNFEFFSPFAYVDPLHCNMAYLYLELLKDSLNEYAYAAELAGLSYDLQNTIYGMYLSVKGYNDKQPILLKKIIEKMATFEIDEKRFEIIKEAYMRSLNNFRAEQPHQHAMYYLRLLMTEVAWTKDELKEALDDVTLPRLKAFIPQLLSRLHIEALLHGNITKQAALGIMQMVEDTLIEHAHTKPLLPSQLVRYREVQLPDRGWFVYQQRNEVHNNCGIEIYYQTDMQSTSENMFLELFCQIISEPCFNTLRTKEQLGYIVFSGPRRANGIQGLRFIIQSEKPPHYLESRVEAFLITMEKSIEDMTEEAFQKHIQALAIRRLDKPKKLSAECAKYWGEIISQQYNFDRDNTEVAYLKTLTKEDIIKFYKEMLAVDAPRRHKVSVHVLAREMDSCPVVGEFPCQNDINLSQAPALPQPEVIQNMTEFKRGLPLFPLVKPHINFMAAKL
Kind of test: activators of recombinant IDE enzyme, dose response, counter-screen for IDE activator project, biochemical, fluorescence polarization (AID 588681).

Test [2] has as its target T1, Insulin-degrading enzyme. Kind of test: activators of endogenous IDE in HEK cells, dose response, cell-based, fluorescence polarization (AID 588439). It is filed as functional. A general note: Polarisation of emitted light reports the rotation of a fluorescent probe.
Test [3] concerns HEK293. Kind of test: HEK cell cytotoxicity by LDH release, dose response, cytotoxicity control for IDE activator project, fluorescence, HEK cells (AID 588440).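 Further: cytotoxicity by LDH release measuring loss of membrane integrity.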 Format: functional, cell-based. The following applies: Homo sapiens. (In general: LDH leaks from cells whose membrane has failed.)
Test [4] has as its system HEK293. The experiment in a line: optical interference in Abeta FP readout, dose response, artefact control for IDE activator project, biochemical, fluorescence polarization (AID 588442). It is filed as functional, cell-based. The following applies: Homo sapiens.
Test [5] relates to Streptococcus sp. 'group A'. Kind of test: growth inhibition of control SK(-) GAS strain, dose response, counter-screen for streptokinase expression inhibitor project, luminescence, kanamycin, BacTiterGlo, confirmation (AID 1900). It is filed as functional, organism-based. In general terms: The purpose of a counterscreen is to sort out artefacts and off-target activity.
Test [6] concerns the target T2, Streptokinase A (Streptococcus pyogenes serotype M1, UniProt P10520).
T2 sequence (P10520 whole entry): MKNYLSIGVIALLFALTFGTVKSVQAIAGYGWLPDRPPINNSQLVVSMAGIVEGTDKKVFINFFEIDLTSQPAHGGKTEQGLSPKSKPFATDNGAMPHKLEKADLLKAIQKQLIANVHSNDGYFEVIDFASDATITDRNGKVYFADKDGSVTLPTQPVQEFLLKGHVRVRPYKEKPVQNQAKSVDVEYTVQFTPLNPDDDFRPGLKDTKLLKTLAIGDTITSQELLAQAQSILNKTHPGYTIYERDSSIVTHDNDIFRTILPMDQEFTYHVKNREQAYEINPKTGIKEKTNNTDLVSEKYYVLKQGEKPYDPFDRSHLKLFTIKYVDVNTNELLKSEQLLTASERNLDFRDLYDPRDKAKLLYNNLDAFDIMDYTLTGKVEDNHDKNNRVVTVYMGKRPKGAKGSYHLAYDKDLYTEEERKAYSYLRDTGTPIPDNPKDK
Kind of test: S. pyogenes streptokinase expression inhibitors, potency, dose response, plasminogen activation absorbance, OD405 (AID 1914).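 Further: secreted streptokinase activity via plasminogen activation per viability signal from cell pellet.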 It is filed as functional, Streptococcus pyogenes M1 GAS.

Test [7] concerns Streptococcus. Kind of test: Group A Streptococcus viability loss, dose response, counter-screen for streptokinase expression inhibitor project, luminescence, BacTiterGlo (AID 1915).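 Further: potency for reduction of bacterial viability or growth.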 Format: functional, organism-based.
For test [8], the target named is T3, Caspase-3 (Homo sapiens, UniProt P42574).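 Further: Dose-response selectivity test against caspase-3 for candidate inhibitors of sentrin-specific proteases (SENPs).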
T3 sequence (P42574 whole entry): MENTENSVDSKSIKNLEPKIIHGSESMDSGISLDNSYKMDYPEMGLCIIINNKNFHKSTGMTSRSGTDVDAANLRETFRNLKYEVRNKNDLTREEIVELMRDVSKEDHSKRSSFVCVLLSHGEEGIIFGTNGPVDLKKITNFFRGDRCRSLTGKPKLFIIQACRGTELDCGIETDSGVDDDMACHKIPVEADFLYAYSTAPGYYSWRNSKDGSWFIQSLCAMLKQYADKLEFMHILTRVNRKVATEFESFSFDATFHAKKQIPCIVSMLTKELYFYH
It is filed as functional.

The target in test [9] is T4, Sentrin-specific protease 7 (Homo sapiens, UniProt Q9BQF6).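 Further: Luminescence-based dose-response confirmation of ultra-high-throughput screening hits, measuring inhibition of SENP7.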
T4 sequence (Q9BQF6 whole entry): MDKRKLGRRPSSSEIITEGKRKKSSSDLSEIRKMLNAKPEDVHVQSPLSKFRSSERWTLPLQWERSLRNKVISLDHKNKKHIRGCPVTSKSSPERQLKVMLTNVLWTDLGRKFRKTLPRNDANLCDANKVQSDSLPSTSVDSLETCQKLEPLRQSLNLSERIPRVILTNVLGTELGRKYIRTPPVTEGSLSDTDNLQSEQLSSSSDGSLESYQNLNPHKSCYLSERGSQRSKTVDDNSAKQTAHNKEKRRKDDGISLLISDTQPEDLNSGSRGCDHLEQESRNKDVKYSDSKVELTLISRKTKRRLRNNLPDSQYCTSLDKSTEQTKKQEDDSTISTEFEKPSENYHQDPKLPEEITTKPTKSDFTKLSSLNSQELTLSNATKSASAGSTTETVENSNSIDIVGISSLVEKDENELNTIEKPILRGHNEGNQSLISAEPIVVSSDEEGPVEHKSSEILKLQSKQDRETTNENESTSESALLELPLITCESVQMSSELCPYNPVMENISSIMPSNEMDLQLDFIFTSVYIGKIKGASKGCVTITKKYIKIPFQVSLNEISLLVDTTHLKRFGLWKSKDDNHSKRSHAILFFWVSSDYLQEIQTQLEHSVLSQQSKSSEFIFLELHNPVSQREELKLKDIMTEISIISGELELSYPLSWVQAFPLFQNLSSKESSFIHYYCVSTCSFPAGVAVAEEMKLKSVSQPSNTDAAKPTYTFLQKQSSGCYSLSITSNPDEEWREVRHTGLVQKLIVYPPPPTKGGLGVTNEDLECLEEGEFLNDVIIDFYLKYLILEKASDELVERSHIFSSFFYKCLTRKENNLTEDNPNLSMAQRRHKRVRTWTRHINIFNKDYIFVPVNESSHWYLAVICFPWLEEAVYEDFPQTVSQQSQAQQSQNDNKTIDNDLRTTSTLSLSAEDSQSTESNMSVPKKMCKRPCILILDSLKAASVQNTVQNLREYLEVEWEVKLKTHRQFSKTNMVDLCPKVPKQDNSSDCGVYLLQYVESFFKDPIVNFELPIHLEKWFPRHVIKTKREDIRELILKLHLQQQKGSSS
It is filed as functional.

In test [10] the target is T5, Sentrin-specific protease 6 (Homo sapiens, UniProt Q9GZR1).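 Further: Luminescence-based dose-response confirmatory assay of SENP6 inhibition, following up an ultra-high-throughput screen.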
T5 sequence (Q9GZR1 whole entry): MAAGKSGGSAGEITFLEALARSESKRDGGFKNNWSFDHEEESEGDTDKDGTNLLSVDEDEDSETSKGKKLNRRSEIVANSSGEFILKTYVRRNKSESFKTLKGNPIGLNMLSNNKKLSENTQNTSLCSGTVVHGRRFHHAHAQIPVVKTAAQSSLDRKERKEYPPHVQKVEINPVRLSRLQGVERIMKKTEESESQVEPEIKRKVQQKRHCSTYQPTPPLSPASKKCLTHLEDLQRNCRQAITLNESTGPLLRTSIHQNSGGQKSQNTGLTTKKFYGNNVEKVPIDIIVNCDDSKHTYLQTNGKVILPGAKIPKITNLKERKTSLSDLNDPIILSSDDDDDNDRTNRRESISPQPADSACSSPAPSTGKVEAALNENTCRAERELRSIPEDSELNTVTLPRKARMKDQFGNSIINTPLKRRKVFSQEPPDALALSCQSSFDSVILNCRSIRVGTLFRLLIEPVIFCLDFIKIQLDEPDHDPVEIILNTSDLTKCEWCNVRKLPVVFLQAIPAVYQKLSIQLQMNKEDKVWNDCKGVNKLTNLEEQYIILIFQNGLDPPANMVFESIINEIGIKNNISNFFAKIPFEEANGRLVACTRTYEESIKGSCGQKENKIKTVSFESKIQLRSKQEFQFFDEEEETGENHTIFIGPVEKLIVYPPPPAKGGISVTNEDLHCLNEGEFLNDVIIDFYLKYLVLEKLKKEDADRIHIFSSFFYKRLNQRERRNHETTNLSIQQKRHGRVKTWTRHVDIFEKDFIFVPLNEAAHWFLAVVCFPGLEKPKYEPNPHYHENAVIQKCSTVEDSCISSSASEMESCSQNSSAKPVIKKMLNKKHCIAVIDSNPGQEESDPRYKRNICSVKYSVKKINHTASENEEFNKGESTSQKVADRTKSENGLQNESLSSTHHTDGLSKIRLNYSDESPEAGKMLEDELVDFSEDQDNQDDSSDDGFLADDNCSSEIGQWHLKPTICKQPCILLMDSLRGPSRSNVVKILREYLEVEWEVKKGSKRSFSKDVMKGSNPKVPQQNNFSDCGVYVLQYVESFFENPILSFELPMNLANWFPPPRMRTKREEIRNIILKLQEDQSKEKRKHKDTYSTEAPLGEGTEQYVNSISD
It is filed as functional.

The target of test [11] is T6, Sentrin-specific protease 8 (Homo sapiens, UniProt Q96LD8).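 Further: luminescence read-out of SENP8 inhibition, dose-response confirmation following an ultra-high-throughput screen.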
T6 sequence (Q96LD8 whole entry): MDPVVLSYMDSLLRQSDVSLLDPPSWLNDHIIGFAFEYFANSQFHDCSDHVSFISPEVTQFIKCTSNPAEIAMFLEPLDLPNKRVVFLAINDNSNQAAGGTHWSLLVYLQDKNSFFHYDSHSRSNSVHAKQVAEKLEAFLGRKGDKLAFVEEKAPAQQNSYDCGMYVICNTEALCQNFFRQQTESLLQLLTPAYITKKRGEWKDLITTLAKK
It is filed as functional.

Test [12] relates to HeLa. Kind of test: HeLa cell cytotoxicity, dose response, cytotoxicity control for MITF activator project, CellTiter-Glo luminescence, cherry-pick samples (AID 540259). It is filed as functional, cell-based. The note with it: Homo sapiens.
A short description of test [13]: Luminescence Cell-Based Dose Confirmation HTS to Identify Activators of 5'UTR Stem-Loop Driven Alpha-Synuclein mRNA Translation in H4 Neuroglioblastoma Cells. [Related pubchem assays: 1829 (Project Summary), 1814 (Primary HTS)]. It is filed as functional.
Test [14] can be described thus: Luminescence Cell-Based Dose Response HTS to Identify Activators of Luciferase Translation or Activity in H4 […] Cells. [Related pubchem assays: 1829 (Project Summary), 1814 (Primary HTS)]. It is filed as functional.
Test [15] has as its system H4. The experiment in a line: Luminescence Cell-Based Dose Response HTS to Identify Activators of 5'UTR Stem-Loop Driven Prion Protein mRNA Translation in H4 Neuroglioblastoma Cells. [Related pubchem assays: 1829 (Project Summary), 1814 (Primary HTS)]. It is filed as functional. The note with it: Homo sapiens.
In test [16] the target is T7, Oxysterols receptor LXR-beta (Homo sapiens, UniProt P55055).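 Further: agonist activity at LXR measured by a cell-based luminescence readout across a dose range, run as a counterscreen for daf-12 agonists; HEK293 cells with Gal4-LXR fusion and GAL4-driven luciferase reporter; potency for activation of Gal4-LXR reporter so compounds are agonists.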
T7 sequence (P55055 whole entry): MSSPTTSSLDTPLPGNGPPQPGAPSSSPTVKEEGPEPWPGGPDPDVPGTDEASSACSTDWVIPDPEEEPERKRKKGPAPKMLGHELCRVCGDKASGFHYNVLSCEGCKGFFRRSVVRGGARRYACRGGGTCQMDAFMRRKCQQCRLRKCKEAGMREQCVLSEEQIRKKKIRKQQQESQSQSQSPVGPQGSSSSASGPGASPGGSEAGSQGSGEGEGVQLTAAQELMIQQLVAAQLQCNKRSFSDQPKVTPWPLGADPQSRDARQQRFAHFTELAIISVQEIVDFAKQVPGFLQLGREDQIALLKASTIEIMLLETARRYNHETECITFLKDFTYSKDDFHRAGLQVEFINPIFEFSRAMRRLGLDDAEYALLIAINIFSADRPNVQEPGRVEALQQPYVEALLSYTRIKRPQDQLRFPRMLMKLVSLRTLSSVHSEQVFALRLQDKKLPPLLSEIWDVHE
Format: functional, cell-based.

Broadly, the EC50 is the midpoint of the concentration-response curve. One may read the IC50 as the concentration at which inhibition is half-maximal. Regarding `O=C(NCCSc1ccc(Br)cc1)c1ccc2[nH]cnc2c1`, the EC50 in test [1] was > 54.7 µM (inactive); in test [2], > 54.7 µM (inactive); in [4], > 56 µM (inactive). Besides, the IC50 in test [3] was > 89.3 µM (inactive).

In general, AC50 refers to the concentration giving half of the maximal activity seen. In the case of `Cc1csc2nc(CSc3nc4ccccc4o3)c(Br)n12`, the 50% effective concentration (EC50) is 45.5 µM (active) in test [5], > 150 µM (not active) in test [6] and > 150 µM (not active) in test [7]. Further, the half-maximal inhibitory concentration (IC50) in [8] was 49.4 µM (active); in test [9], 16.2 µM (active); in test [10], 12.5 µM (active); in [11], > 100 µM (inactive). Further, the half-maximal activity concentration (AC50) in test [12] is 42.3 µM (active).

As to `Cc1nn(C(=O)c2cccs2)c(N)c1-c1ccccc1`, the half-maximal effective concentration (EC50) is 13.7 µM (active) in test [13], 19 µM (active) in test [14], > 120 µM (not active) in test [15] and > 67.5 µM (inactive) in test [16]. Moreover, the AC50 in [12] is 30.1 µM (active).
